Test results from paper PMC6585474, “In vitro and in vivo Human Metabolism of (S)-[^18F]Fluspidine – A Radioligand for Imaging σ1 Receptors With Positron Emission Tomography (PET)” (Frontiers in Pharmacology, 2019).
Where two headings read alike, the source gives them in different places.

How the values were obtained:
[1] = RLM, NADPH, after 30 min; ref Wiese et al., 2016; cited from earlier work
[2] = design: method as in Wiese et al., 2016; details: mouse brain, 60 min post injection; ref Wiese et al., 2016; cited from earlier work
[3] = design: method as in Wiese et al., 2016; details: mouse plasma, 30 min post injection; ref Wiese et al., 2016; cited from earlier work
[4] = Time- and concentration-dependent microsomal transformation of (S)-[^18F]1 (HLM, NADPH, radio-HPLC); type: in vitro ADME, human; details: 37°C; for unchanged radioligand: after 30 min incubation; for time at which 50% of unchanged (S)-[^18F]1 could be detected: HLM
Procedure: Respective amounts of a solution of (S)-1 of 0.1 mg/mL [<1 μM (referring to estimated molar activity; no addition of carrier), 2, and 20 μM] in acetonitrile were put into test tubes and the solvent was evaporated using the DB-3D TECHNE Sample Concentrator (Biostep, Jahnsdorf, Germany) at room temperature under a stream of nitrogen. PBS and HLM (1 mg/mL) and ∼5 MBq (S)-[^18F]1 (molar activity: 17 GBq/μmol, at the start of incubations) in 100 μl PBS were added, mixed vigorously, and pre-incubated at 37°C for 3 min. Analogously pre-incubated NADPH (2 mM) was added and mixtures were shaken gently at 37°C using the BioShake iQ (QUANTIFOIL Instruments, Jena, Germany). After 0, 2, 5, 10, 15, 20, 30, 40, 50, and 60 min, samples of 20 μL were taken and added to 80 μL cold acetonitrile (-20°C), followed by vigorous shaking (30 s), cooling on ice (4 min), and centrifugation at 14,000 rpm (10 min). Supernatants (90 μL) were diluted with water (30 μL) and immediately analyzed by radio-HPLC (system II).
System II: Analyses of samples from microsomal incubations to determine time and concentration dependency of microsomal transformation were performed on a JASCO X-LC system (JASCO Labor- und Datentechnik) equipped with a UV/Vis detector UV-2070 (monitoring at 210 nm) and a radioactivity flow detector GABI Star (raytest Isotopenmessgeräte, Straubenhardt, Germany) including NaI detector (2 × 2″ pinhole, 16 mm × 30 mm). […] The isocratic solvent system consisted of water/acetonitrile 40:60 (v/v), containing NH4OAc (20 mM). Unchanged (S)-[^18F]1 eluted at a retention time of 4.1 min, whilst formed radiometabolites eluted at 0.6–2.2 min. The percentages of unchanged (S)-[^18F]1 were calculated from HPLC data as follows: Fraction of (S) - [^18F]1(%) = Peak area(S)-[18F]1/(Peak area(S)-[18F]1 + Peak arearadiometabolites) × 100%
In order to obtain basic information about the metabolic stability in vitro, the time course of the degradation of (S)-[^18F]1 was investigated in presence of different concentrations of (S)-1 [no-carrier-added (n.c.a., <1 μM) and carrier-added: 2 and 20 μM]. For that purpose, incubations were performed in PBS with HLM and NADPH at 37°C. At defined time points (until 60 min) samples were taken and added to cold acetonitrile to terminate the incubations. After centrifugation, the fractions of remaining (S)-[^18F]1 were determined by radio-HPLC.

[5] = Incubation of (S)-1 with HLM (NADPH, UDPGA) and detection of metabolites by LC-MS/MS; type: in vitro ADME, human; details: 37°C, 120 min, LC-MS/MS (MRM)
Procedure: In the following, the final concentrations are provided in brackets. For incubations of (S)-[^18F]1 together with (S)-1 under conditions for oxidation and glucuronidation, a solution of (S)-1 of 0.1 mg/mL (2 μM) in acetonitrile was put into test tubes and the solvent was evaporated using the DB-3D TECHNE Sample Concentrator (Biostep) at room temperature under a stream of nitrogen. HLM (1 mg/mL) and alamethicin (50 μg/mL, from methanolic solution) were mixed ([Fisher et al., 2000]), kept on ice for 15 min and added to the test tubes. PBS, ∼5 MBq (S)-[^18F]1 in 20 μL PBS, and MgCl2 (2 mM) were added, mixed vigorously and the mixture was pre-incubated at 37°C for 3 min. After addition of analogously pre-incubated NADPH (2 mM) and UDPGA (5 mM), the incubations were continued by gentle shaking at 37°C for 120 min using the BioShake iQ (QUANTIFOIL Instruments). After termination by adding 1.0 mL of cold acetonitrile (-20°C) and vigorous mixing for 30 s, the mixtures were stored at 4°C for 5 min. […]
For selective detection of metabolites, MRM transitions, which covered products of, e.g., debenzylation, defluorination, single, and multiple oxygenations as well as single and multiple glucuronidation of (S)-1 or its intermediate metabolites, were monitored. After incubation of (S)-1 with HLM in presence of NADPH a series of metabolites (M1–M10) could be detected (Figure 4 and Table 1).

[6] = in vivo, cited from earlier work
[7] = human, in vivo
Procedure: After injection of 244.6-290.4 MBq (mean: 265.5 MBq) of (S)-[^18F]1 into 8 healthy controls arterial blood samples (∼16 mL) were withdrawn at 10, 20, and 30 min. […] After 90 or 120 min, urine (∼8 mL) was collected and stored on ice. Plasma was obtained by centrifugation of blood samples at 7,000 rpm (UNIVERSAL 320 R, Hettich, Germany) for 7 min. Protein precipitation and extraction with acetonitrile was conducted as follows. Method A: 10 × 1.6 mL cold acetonitrile (-35°C) were added to 10 × 400 μL plasma, shaken for 3 min, cooled at 4°C for 5 min and centrifuged at 7,000 rpm (Eppendorf Centrifuge 5424) for 5 min. Supernatants were collected and the precipitates were extracted with 1.6 mL acetonitrile each. The combined supernatants were concentrated at 70°C under a flow of nitrogen (Sample Concentrator DB-3D TECHNE) to provide residual volumes of 40–70 μL, which were reconditioned by adding water to obtain samples of 100 μL, which were immediately analyzed by radio-HPLC (system I). Method B: similar to method A, using 2 × 8 mL cold acetonitrile (-35°C) and 2 × 2 mL plasma. After centrifugation, the precipitates were extracted with 2 × 4 mL acetonitrile.
System I: Analyses were performed on a JASCO LC-2000 system (JASCO Labor- und Datentechnik, Gross-Umstadt, Germany) including a UV-2070 UV–VIS detector (monitoring at 210 nm) online with a GABI Star radioactivity flow detector (raytest Isotopenmessgeräte, Straubenhardt, Germany) with a NaI detector (2 × 2″ pinhole, 16 mm × 30 mm). Chromatographic separations were achieved using a Multospher 120 RP 18 AQ-5μ-column, 250 mm × 4.6 mm, 5 μm, including pre-column, 10 mm × 4 mm (CS-Chromatographie Service, Langerwehe, Germany). The solvent system consisted of eluent A: water/acetonitrile, 95:5 (v/v), containing NH4OAc (20 mM) and eluent B: water/acetonitrile, 20:80 (v/v), containing NH4OAc (20 mM). […]
Urine samples, taken after 90 or 120 min post injection were measured by radio-HPLC without further preparation.

[8] = rhesus monkey, in vivo; cited from earlier work
[9] = tested on: β-glucuronidase (Helix pomatia type H-3); experiment: β-Glucuronidase cleavage of microsomal-formed metabolite M12; type: in vitro ADME; details: acetate buffer pH 4.5–5.0, 37°C, 2 h; M5 the only product observed
Procedure: In order to investigate the cleavage of formed glucuronides (see section “β-Glucuronidase Cleavage of Microsomal-Formed Metabolite M12”), microsomal incubation of (S)-1 was performed in quadruplicate with higher amounts of the substrate and the reagents as follows (final concentrations in brackets): (S)-1 (200 μM), HLM (2 mg/mL), NADPH (4 mM), MgCl2 (5 mM), alamethicin (0.1 mg/mL), UDPGA (10 mM). After addition of acetonitrile, resulting mixtures were combined and further processing was proceeded as described above. The obtained sample was separated chromatographically using the HPLC system I (Section “Radio-HPLC”) with UV monitoring at 210 nm. […]
To 10 μL of a solution of metabolite M12 (Section “Incubation of (S)-[^18F]1 and Non-radioactive References for Identification of in vitro Metabolites and Radiometabolites”), 32 μL acetate buffer (NaOAc/AcOH, 100 mM, pH 4.5–5.0), and 8 μL β-glucuronidase from Helix pomatia Type H-3 (aqueous solution, ≥90,000 units/mL, final: ≥14,400 units/mL) were added. […] After centrifugation at 14,000 rpm (Eppendorf Centrifuge 5424) for 15 min, 40 μL of the supernatant was diluted with 60 μL of water and analyzed by LC-MS/MS monitoring the MRM transitions m/z 518.2/342.2 (as for glucuronides of mono-oxygenated metabolites, e.g., M12) and 342.2/91.1 (as for mono-oxygenated metabolites, e.g., M5).

[10] = HLM 1 mg/mL, PBS, n.c.a. (<1 μM)

In the case of FCCC1OC2(CCN(Cc3ccccc3)CC2)c2ccccc21 (racemic) [rac-1, racemic fluspidine], the “stability (intact compound)” value [1] is listed as ~13%.
For [17F]CCC1OC2(CCN(Cc3ccccc3)CC2)c2ccccc21 (racemic) [rac-[^18F]1, racemic [^18F]fluspidine], the “unchanged radioligand in brain” value [2] is given as 98% and the “fraction of unchanged rac-[^18F]1 in plasma” value [3] is given as 89 ± 3%.
For FCC[C@@H]1OC2(CCN(Cc3ccccc3)CC2)c2ccccc21 [(S)-1, 1′ -benzyl-3-(2-fluoroethyl)-3H-spiro[2-benzofuran-1,4′ -piperidine]], the unchanged radioligand [4, 10] was 14% and the defluorination [5] was “not observed”.
In the case of [18F]CC[C@@H]1OC2(CCN(Cc3ccccc3)CC2)c2ccccc21 [(S)-[^18F]1, (S)-[^18F]fluspidine], the unchanged radioligand [4, 10] is reported as 14%, the “unchanged (S)-[^18F]1” value ([4]; HLM 1 mg/mL, PBS, n.c.a. (<1 μM), after 60 min) is reported as 3% and the “time at which 50% of unchanged (S)-[^18F]1 could be detected” value (“time at which 50% of unchanged” for short) ([4]; 2 μM added (S)-1) is reported as 10 min. For the same compound, the “time at which 50% of unchanged” value ([4]; 20 μM added (S)-1) was 17 min, the “time at which 50% of unchanged” value ([4]; n.c.a. (<1 μM)) was 10 min and the “radioligand remained unchanged in plasma” value ([6]; 16 min) was 48%. For the same compound, the “radioligand remained unchanged in plasma” value ([6]; 0.5 h) was 37%, the “Fraction of (S)-[^18F]1 of the total activity in urine” value [7] was 0.0–7.9% and the “Fraction of (S)-[^18F]1 in urine” value ([7]; 90 min) was 2.6%. The “Fraction of (S)-[^18F]1 in urine” value ([7]; 120 min) was 2.5% and the “fraction of the total activity in plasma” value [8] was 50%.
In the case of O=C(O)[C@H]1OC(OC(CF)[C@@H]2OC3(CCN(Cc4ccccc4)CC3)c3ccccc32)[C@H](O)[C@@H](O)[C@@H]1O (some centres unmarked) [M12], the “cleavage by β-glucuronidase” value [9] is reported as “cleaved completely”.
